Biological target: T1, IKBKE (IKK epsilon) (Homo sapiens, UniProt Q14164)
T1 construct: purchased Thermo Fisher Scientific (Life Technologies) SelectScreen
Assay: SelectScreen Z'LYTE
Type: biochemical
Method in brief: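 Percent values come from Thermo SelectScreen profiling of NU5455, combining activity and binding assays. CSF1R was run in Z'LYTE format at Km app ATP, and CAMK1 in Adapta format with ATP listed at 10.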

T1 sequence (Q14164 whole entry): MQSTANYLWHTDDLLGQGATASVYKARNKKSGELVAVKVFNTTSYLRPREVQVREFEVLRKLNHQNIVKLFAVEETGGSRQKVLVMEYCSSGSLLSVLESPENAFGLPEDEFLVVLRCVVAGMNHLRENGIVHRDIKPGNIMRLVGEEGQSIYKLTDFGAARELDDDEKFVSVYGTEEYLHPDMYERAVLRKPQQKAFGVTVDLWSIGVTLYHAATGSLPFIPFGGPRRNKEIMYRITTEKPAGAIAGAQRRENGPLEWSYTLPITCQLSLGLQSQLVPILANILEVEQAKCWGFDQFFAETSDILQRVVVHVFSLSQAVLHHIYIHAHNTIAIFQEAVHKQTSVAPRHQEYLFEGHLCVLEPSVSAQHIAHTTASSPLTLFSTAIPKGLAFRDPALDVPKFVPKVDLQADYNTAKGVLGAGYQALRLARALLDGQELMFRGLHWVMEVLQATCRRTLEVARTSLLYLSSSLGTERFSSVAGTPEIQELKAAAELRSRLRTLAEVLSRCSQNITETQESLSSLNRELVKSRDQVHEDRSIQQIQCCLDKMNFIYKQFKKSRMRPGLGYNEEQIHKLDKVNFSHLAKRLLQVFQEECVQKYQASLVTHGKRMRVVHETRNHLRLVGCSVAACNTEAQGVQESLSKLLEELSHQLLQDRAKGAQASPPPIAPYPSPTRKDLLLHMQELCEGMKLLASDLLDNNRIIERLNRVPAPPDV

Compound: CN(C(=O)CN1CCOCC1)c1ccc2sc3c(-c4cccc5c(=O)cc(N6CC7CCC(C6)O7)oc45)cccc3c2c1 [NU5455]
- inhibition at 1 µM: -0.7%
